Source: patent publication US4849429A, “Certain 1,4-dihydro-2,6-dilower-alkyl-4-(mono-substituted pyridyl) useful for treating coronary artery or cerebral artery disease” (The Green Cross Corporation, priority 1985, dated 1989)
Counter-ions that a name gives are not always drawn. Like-named read-outs stand apart in the source and are kept apart here.

What was measured:
[1] = Test 2: blood pressure depression up to 24 hours and duration until 50% recovery, oral; type: in vivo, Male, spontaneously hypertension-developing rats; settings: for response vs control in vivo at 25 mg/kg: Rattus norvegicus; for Duration 50% recovery: duration until pressure recovered to 50% from the maximum depression value
Method: (§1) Male, spontaneously hypertension-developing rats of ages of 10 to 11 weeks (in groups of 3 to 5 animals) were used in the test. For blood pressure determination, systolic pressure was measured without anesthesia by an indirect tail-cuff method using a sphygmomanometer (PE-300, Narco Bio-System).

[2] = Test 1: blood pressure depression effect, systolic pressure, indirect tail-cuff method, oral; type: in vivo, Male, spontaneously hypertension-developing rats; settings: for Systolic blood pressure (mmHg) After 1 hr / Systolic blood pressure (mmHg) After 4 hrs / Systolic blood pressure (mmHg) After 7 hrs: 25 mg/kg oral, average value; for Systolic blood pressure (mmHg) After 1 hr: 1 hr after administration; for Systolic blood pressure (mmHg) After 4 hrs: 4 hrs after administration; for Systolic blood pressure (mmHg) After 7 hrs: 7 hrs after administration
Method: Blood pressure depression effect
as §1
The compound to be tested was orally administered (at a dose of 25 mg/kg in terms of the active compound) as a 10% HCO-60 (polyoxyethylene hardened castor oil) suspension. Blood pressure was determined 1, 4 and 7 hours after the administration.
Further, the blood pressure depression effect of the fumarate of the compound obtained in Example 28 described later was examined in the same manner as described above.

[3] = 1h after oral administration, percent based on that before administration (100), read-out: Depression value (%) of blood pressure, 1h
[4] = 2h after oral administration, percent based on that before administration (100), read-out: Depression value (%) of blood pressure, 2h
[5] = 4h after oral administration, percent based on that before administration (100), read-out: Depression value (%) of blood pressure, 4h
[6] = 7h after oral administration, percent based on that before administration (100), read-out: Depression value (%) of blood pressure, 7h
[7] = 24h after oral administration, percent based on that before administration (100), read-out: Depression value (%) of blood pressure, 24h
[8] = maximum lowering, percent based on that before administration (100), read-out: Depression value (%) of blood pressure, Max

SMILES | response vs control in vivo at 25 mg/kg [1, 3] | response vs control in vivo at 25 mg/kg [1, 4] | response vs control in vivo at 25 mg/kg [1, 5] | response vs control in vivo at 25 mg/kg [1, 6] | response vs control in vivo at 25 mg/kg [1, 7] | response vs control in vivo at 25 mg/kg [1, 8] | Duration 50% recovery [1] | Systolic blood pressure (mmHg) After 1 hr [2] | Systolic blood pressure (mmHg) After 4 hrs [2] | Systolic blood pressure (mmHg) After 7 hrs [2] | time required for 50% recovery from maximum depression value (%) of blood pressure ([2]; same manner as Test 1, oral) | maximum depression value (%) of blood pressure from the value (100%) before administration ([2]; same manner as Test 1, oral, before administration = 100%) | response vs control in vivo at 25 mg/kg ([1]; po, 1 h, read-out: Depression value (%) of blood pressure, 1h) | response vs control in vivo at 25 mg/kg ([1]; po, 2 h, read-out: Depression value (%) of blood pressure, 2h) | response vs control in vivo at 25 mg/kg ([1]; po, 4 h, read-out: Depression value (%) of blood pressure, 4h) | response vs control in vivo at 25 mg/kg ([1]; po, 7 h, read-out: Depression value (%) of blood pressure, 7h) | response vs control in vivo at 25 mg/kg ([1]; po, 24 h, read-out: Depression value (%) of blood pressure, 24h) | response vs control in vivo at 25 mg/kg ([1]; read-out: Depression value (%) of blood pressure, Max)
COC(=O)C1=C(C)NC(C)=C(C(=O)OCCN(C)Cc2ccccc2)C1c1cccc(C#N)n1 (stereo not drawn) [Example 1, 2,6-Dimethyl-4-(6-cyano-2-pyridyl)-1,4-dihydropyridine-3,5-dicarboxylicacid 3-β-(N-benzyl-N-methylamino)ethyl ester 5-methyl ester] | 69% | 74% | 84% | 88% | 98% | 69% | 4.4 h | 115 mmHg | 137 mmHg | 148 mmHg | – | – | – | – | – | – | – | –
COC(=O)C1=C(C)NC(C)=C(C(=O)OCCN(C)Cc2ccccc2)C1c1cccc(Br)n1 (stereo not drawn) [Example 3, 2,6-Dimethyl-4-(6-bromo-2-pyridyl)-1,4-dihydropyridine-3,5-dicarboxylicacid 3-β-(N-benzyl-methylamino)ethyl ester 5-methyl ester] | 63% | 72% | 86% | 83% | 99% | 63% | 3.5 h | 126 mmHg | 143 mmHg | 161 mmHg | – | – | – | – | – | – | – | –
COC(=O)C1=C(C)NC(C)=C(C(=O)OCCN(C)Cc2ccccc2)C1c1cc([N+](=O)[O-])ccn1 (stereo not drawn) [Example 5, 2,6-Dimethyl-4-(4-nitro-2-pyridyl)-1,4-dihydropyridine-3,5-dicarboxylic acid 3-β-(N-benzyl-N-methylamino)ethyl ester 5-methyl ester] | 67% | 82% | 93% | 90% | 104% | 67% | 2.3 h | 156 mmHg | 135 mmHg | 140 mmHg | – | – | – | – | – | – | – | –
COC(=O)C1=C(C)NC(C)=C(C(=O)OCCN(C)Cc2ccccc2)C1c1ccnc(C(F)(F)F)c1 (stereo not drawn) [Example 6, 2,6-Dimethyl-4-(2-trifluoromethyl-4-pyridyl)-1,4-dihydropyridine-3,5-dicarboxylic acid 3-β-(N-benzyl-N-methylamino)ethyl ester 5-methyl ester] | – | – | – | – | – | – | – | 139 mmHg | 145 mmHg | 145 mmHg | – | – | – | – | – | – | – | –
COC(=O)C1=C(C)NC(C)=C(C(=O)OCCN(C)Cc2ccccc2)C1c1cccnc1C(F)(F)F (stereo not drawn) [Example 28 fumarate] | – | – | – | – | – | – | – | – | – | – | 16.2 h | 67% | – | – | – | – | – | –
COC(=O)C1=C(C)NC(C)=C(C(=O)OC)C1c1ccccc1[N+](=O)[O-] [Nif, 2,6-dimethyl-4-(2-nitrophenyl)-1,4-dihydropyridine-3,5-dicarboxylic acid dimethyl ester, reference compound] | – | – | – | – | – | – | 19.4 h | – | – | – | – | – | 72% | 73% | 77% | 70% | 90% | 70%
